Data set [1] relates to wheat red rust pathogen (Puccinia recondita). Kind of data set: Test Example 1: wheat red rust disease control test (100 ppm). It counts as in vivo. As to conditions: 100 ppm by mass sprayed on wheat young seedlings (Norin 61), inoculated after air-drying; blotch area ratio 12 days after inoculation. The method, then: 5 parts by, mass of an oxadiazole compound, 93.5 parts by mass of dimethylformamide, and 1.5 parts by mass of polyoxyethylene alkyl aryl ether were mixed and dissolved to obtain an emulsion (I) containing 5% by mass of the active ingradient.
The control value was calculated by the following formula. Control value (%)=100-{blotch area ratio in treated area/blotch area ratio in untreated area}×100
Water was added to the emulsion (I) such that the concentration of the oxadiazole compound became 100 ppm by mass, and then the oxadiazole compound was dissolved to obtain a pharmaceutical solution. Then, the pharmaceutical solution was sprayed on wheat young seedings (variety “Norin 61” at the first to second leaf stage) grown in nursery pots. After air-drying, the wheat young seedings sprayed with the pharmaceutical solution were inoculated with summer spores of wheat red rust pathogen (Puccinia recondita) by spraying the summer spores (in treated area).
As a control, wheat young seedings that were not sprayed with the pharmaceutical solution were inoculated in the same manner as mentioned above (in untreated area).
The wheat young seedings were placed under humid conditions at 20° C. for 1 day. […] After 12 days passed from inoculation, leaves of the wheat seedings were visually observed to measure the blotch area ratio, and the control value was calculated.

On to `C[S+]([O-])CCOc1cc(=O)n(Cc2ccc(-c3noc(C(F)(F)F)n3)cc2)cn1` (stereo not drawn) [Compound 2-75], for which the Control value in data set [1] is recorded as 2-75%. For orientation: melting point means the temperature of the solid-liquid transition. The compound `N#CCON=C1CCN(C(=O)Cc2ccc(-c3noc(C(F)(F)F)n3)cc2)CC1` [Compound 20] gave a melting point of 126 to 128 °C. On the same count and under the same terms, the value for `N#CCON=C1CN(C(=O)Cc2ccc(-c3noc(C(F)(F)F)n3)cc2)C1` [Compound 21] was 125 to 126 °C. On to `CC(C)ON=C1CCN(C(=O)Cc2ccc(-c3noc(C(F)(F)F)n3)cc2)CC1` [Compound 22], for which the melting point lay in the range of 96 to 100 °C. The same measure, in the same setting: the value for `O=C(Cc1ccc(-c2noc(C(F)(F)F)n2)cc1)N1CCC(=NO)CC1` [Compound 25] was 191 to 192 °C; that for `N#CCCON=C1CCN(C(=O)Cc2ccc(-c3noc(C(F)(F)F)n3)cc2)CC1` [Compound 26] was 71 to 72 °C; that for `CSCCON=C1CCN(C(=O)Cc2ccc(-c3noc(C(F)(F)F)n3)cc2)CC1` [Compound 27] was 68 to 69 °C.

The compound `CCON=C1CN(C(=O)C(=O)c2ccc(-c3noc(C(F)(F)F)n3)cc2)C1` [Compound 30] gave a melting point of 139 to 141 °C. As to `CCON=C1CN(C(=O)C(=NOC)c2ccc(-c3noc(C(F)(F)F)n3)cc2)C1` [Compound 31], the melting point lay in the range of 147 to 149 °C. Same read-out and setting: as for `CCON=C1CCN(C(=O)Cc2ccc(-c3noc(C(F)(F)F)n3)cc2)CC1SC` (stereo not drawn) [Compound 32], the figure is 80 to 82 °C.

As for `CON=C1CCN(C(=O)Cc2ccc(-c3noc(C(F)(F)F)n3)cc2)CC1SC` (stereo not drawn) [Compound 33], the melting point lay in the range of 120 to 121 °C. The same measure, in the same setting: as for `CCON=C1CCN(C(=O)Cc2ccc(-c3noc(C(F)(F)F)n3)cc2)CC1S(C)(=O)=O` (stereo not drawn) [Compound 34], the figure is 128 to 130 °C. The same measure, in the same setting: the value for `O=C(Cc1ccc(-c2noc(C(F)(F)F)n2)cc1)N1CC(=NOCC(F)F)C1` [Compound 41] was 140 to 141 °C; that for `CCON=C1CN(C(=O)C(SC)c2ccc(-c3noc(C(F)(F)F)n3)cc2)C1` (stereo not drawn) [Compound 44] was 108 to 110 °C. The same measure, in the same setting: the value for `CCCON=C1CN(C(=O)C(SCC)c2ccc(-c3noc(C(F)(F)F)n3)cc2)C1` (stereo not drawn) [Compound 45] was 83 to 85 °C.

For the origin of these results see patent US11365193B2, “Oxadiazole compound and fungicide for agricultural and horticultural use” (Nippon Soda Co., Ltd., priority 2017, dated 2022).
